Test results as given in US9481670B2, “Triazine compounds” (Sphaera Pharma PTE. Ltd., priority 2011, dated 2016).

These compounds were tested against T1, PI3K alpha (Homo sapiens, UniProt P42336) (assay: P110 Alpha TR-FRET Assay (PI3K alpha kinase assay, HTRF Transcreener ADP Assay)). Conditions: PI3K (WT).
T1 construct: purchased Millipore Upstate
T1 sequence (P42336 whole entry): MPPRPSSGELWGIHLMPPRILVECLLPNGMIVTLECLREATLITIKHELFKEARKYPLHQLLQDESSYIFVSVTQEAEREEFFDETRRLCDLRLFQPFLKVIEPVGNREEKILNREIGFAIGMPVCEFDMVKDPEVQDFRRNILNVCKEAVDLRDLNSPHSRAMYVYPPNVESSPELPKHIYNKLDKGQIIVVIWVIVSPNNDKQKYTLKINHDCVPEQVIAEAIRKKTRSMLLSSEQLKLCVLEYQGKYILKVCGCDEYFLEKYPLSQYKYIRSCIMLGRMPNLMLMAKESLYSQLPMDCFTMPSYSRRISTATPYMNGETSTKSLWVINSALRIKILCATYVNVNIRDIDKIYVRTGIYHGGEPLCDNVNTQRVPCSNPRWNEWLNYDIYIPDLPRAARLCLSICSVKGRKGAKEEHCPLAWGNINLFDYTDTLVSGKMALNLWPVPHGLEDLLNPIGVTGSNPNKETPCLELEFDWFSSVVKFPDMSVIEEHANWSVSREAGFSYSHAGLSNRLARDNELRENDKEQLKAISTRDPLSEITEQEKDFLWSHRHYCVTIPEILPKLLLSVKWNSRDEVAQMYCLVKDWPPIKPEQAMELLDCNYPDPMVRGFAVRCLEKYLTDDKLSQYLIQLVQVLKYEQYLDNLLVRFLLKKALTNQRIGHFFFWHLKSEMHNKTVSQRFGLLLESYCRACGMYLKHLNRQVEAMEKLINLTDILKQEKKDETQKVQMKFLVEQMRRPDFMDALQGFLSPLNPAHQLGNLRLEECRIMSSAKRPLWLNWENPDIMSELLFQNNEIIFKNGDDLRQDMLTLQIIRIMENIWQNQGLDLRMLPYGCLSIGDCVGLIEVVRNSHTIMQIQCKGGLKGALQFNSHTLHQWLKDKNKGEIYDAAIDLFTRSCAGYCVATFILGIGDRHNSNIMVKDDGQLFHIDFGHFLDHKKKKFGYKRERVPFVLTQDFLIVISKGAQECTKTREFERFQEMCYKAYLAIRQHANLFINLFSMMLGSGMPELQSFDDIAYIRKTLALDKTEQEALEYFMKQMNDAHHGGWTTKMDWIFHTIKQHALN
T1 sequence (P27986 whole entry partner): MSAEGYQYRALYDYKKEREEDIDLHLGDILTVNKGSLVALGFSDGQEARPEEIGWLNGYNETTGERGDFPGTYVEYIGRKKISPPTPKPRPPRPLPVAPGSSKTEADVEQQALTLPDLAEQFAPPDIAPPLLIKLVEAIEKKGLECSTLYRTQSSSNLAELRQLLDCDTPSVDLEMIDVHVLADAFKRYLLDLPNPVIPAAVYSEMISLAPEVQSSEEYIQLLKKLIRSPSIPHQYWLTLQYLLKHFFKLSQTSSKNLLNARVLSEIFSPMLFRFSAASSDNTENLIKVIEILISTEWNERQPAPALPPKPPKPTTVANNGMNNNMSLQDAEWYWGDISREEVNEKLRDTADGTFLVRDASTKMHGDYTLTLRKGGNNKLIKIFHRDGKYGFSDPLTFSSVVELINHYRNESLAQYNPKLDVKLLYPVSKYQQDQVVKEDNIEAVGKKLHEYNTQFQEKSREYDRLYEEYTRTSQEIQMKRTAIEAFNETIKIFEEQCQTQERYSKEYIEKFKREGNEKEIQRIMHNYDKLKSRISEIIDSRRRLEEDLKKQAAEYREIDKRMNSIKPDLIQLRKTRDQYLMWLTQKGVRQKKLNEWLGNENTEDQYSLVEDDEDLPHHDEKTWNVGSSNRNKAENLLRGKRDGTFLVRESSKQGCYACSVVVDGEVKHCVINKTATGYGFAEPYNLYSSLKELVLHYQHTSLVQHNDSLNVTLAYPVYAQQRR
Assay type: biochemical
Protocol: PI3K alpha kinase assay may be done using HTRF Transcreener ADP Assay (Cisbio).
Composition of the reaction buffer was as follows 50 mM HEPES, pH 7.5, 5 mM MgCl2, 1 mM DTT, 30 μM Na3VO4. PI3 Kinase was procured from Millipore Upstate. […] ATP was used at final concentration of 10 μM. Corning 384 well white plates were used for the assay.
2 μl of diluted enzyme (50 ng), 3 μl of diluted compound and 5 μl of buffer were added, mixed then incubated for 20 minutes with shaking at 400 rpm. 3 μl of substrate (10 μM of ATP and 5 μM PIP2) were added to initiate the reaction. The samples were incubated for 20 min. At the end of the reaction time 10 μl of the Detection mix (5 μl of ADP-D2 and 5 μl of Anti-ADP-Cryptate) was added and the contents were incubated for 1 h. The reaction plate was directly read in an Envision Multilabel Plate Reader.
For Cc1nc(N)ccc1-c1nc(Oc2ccc(C(=O)N(C)C)cc2)nc(N2CCOCC2)n1 [Compound 1020, 4-14-{[4-1-(6-17-amino-2-19-methylpyridin-3-yl)-6-5-(morpholin-4-yl)-1,3,5-triazin-2-yl]oxy}-N,N-dimethylbenzamide], the IC50 was under 5 µM.
O=C(O)C1(Nc2nc(-c3cccc(O)c3)nc(N3CCOCC3)n2)CCCC1 [Compound 1153, 1-((4-(3-hydroxyphenyl)-6-morpholino-1,3,5-triazin-2-yl)amino)cyclopentanecarboxylic acid] showed an IC50 of under 5 µM.
CN(C)C(=O)c1ccc(Oc2nc(-c3ccnc(N)c3)nc(N3CCOCC3)n2)cc1 [Compound 1036, 4-14-{[4-1-(2-26-aminopyridin-4-yl)-6-5-(morpholin-4-yl)-1,3,5-triazin-2-yl]oxy}-N,N-dimethylbenzamide] gave an IC50 of under 5 µM.
In the case of c1cc(-c2nc(-c3cccc4[nH]ncc34)nc(N3CCOCC3)n2)c2cn[nH]c2c1 [Compound 1224, 4-12-[4-3-(1H-indazol-4-yl)-6-5-(morpholin-4-yl)-1,3,5-triazin-2-yl]-1H-indazole], the IC50 is reported as under 5 µM.
Work on CN(C)C(=O)CCNc1nc(-c2cccc3[nH]ncc23)nc(N2CCOCC2)n1 [Compound 1223, 3-((4-(1H-indazol-4-yl)-6-morpholino-1,3,5-triazin-2-yl)amino)-N,N-dimethylpropanamide] yielded an IC50 of under 5 µM.
CN(C)C(=O)N1CC[C@H](Oc2nc(-c3ccc(N)nc3)nc(N3CCOCC3)n2)C1 [Compound 1026, 3-19-{[4-3-(6-16-aminopyridin-3-yl)-6-5-(morpholin-4-yl)-1,3,5-triazin-2-yl]oxy}-N,N-dimethylpyrrolidine-1-carboxamide] was tested, and the IC50 was under 5 µM.
For CN(C)C(=O)c1ccc(Oc2nc(-c3cccc4[nH]ncc34)nc(N3CCCC(C(N)=O)C3)n2)cc1 (centres unmarked) [Compound 1039, 1-27-{4-1-[4-10-(dimethylcarbamoyl)phenoxy]-6-5-(1H-indazol-4-yl)-1,3,5-triazin-2-yl}piperidine-3-carboxamide], the IC50 was over 5 µM.
In the case of c1cc(-c2nc(N3CCNCC3)nc(N3CCOCC3)n2)c2cn[nH]c2c1 [Compound 1229, 4-17-[4-5-(morpholin-4-yl)-6-3-(piperazin-1-yl)-1,3,5-triazin-2-yl]-1H-indazole], the IC50 is reported as under 5 µM.
In the case of O=C(O)CNc1nc(-c2ccc(F)nc2)nc(N2CCOCC2)n1 [Compound 1179, 2-((4-(6-fluoropyridin-3-yl)-6-morpholino-1,3,5-triazin-2-yl)amino)acetic acid], the IC50 is reported as over 5 µM.
Work on CN(C)C(=O)c1ccc(Oc2nc(-c3cnc(N)s3)nc(N3CCCOCC3)n2)cc1 [Compound 1002, 4-9-{[4-1-(2-17-amino-1,3-thiazol-5-yl)-6-5-(1,4-oxazepan-4-yl)-1,3,5-triazin-2-yl]oxy}-N,N-dimethylbenzamide] yielded an IC50 of under 5 µM.
COC(=O)CNc1nc(-c2cccc(N)c2)nc(N2CCOCC2)n1 [Compound 1197, methyl 2-((4-(3-aminophenyl)-6-morpholino-1,3,5-triazin-2-yl)amino)acetate] was tested, and the IC50 was under 5 µM.
In the case of CN(C)C(=O)c1ccc(Oc2nc(-c3ccncc3)nc(-c3cccc4[nH]ncc34)n2)cc1 [Compound 1024, 4-9-{[4-1-(1H-indazol-4-yl)-6-5-(pyridin-4-yl)-1,3,5-triazin-2-yl]oxy}-N,N-dimethylbenzamide], the IC50 is reported as over 5 µM.
In the case of CN(C)C(=O)c1ccc(Oc2nc(-c3cccc4[nH]ccc34)nc(N3CCOCC3)n2)cc1 [Compound 1064, 4-14-{[4-1-(1H-indol-4-yl)-6-5-(morpholin-4-yl)-1,3,5-triazin-2-yl]oxy}-N,N-dimethylbenzamide], the IC50 is reported as under 5 µM.
Work on CN(C)C(=O)c1ccc(Oc2nc(-c3cccc4[nH]c(=O)[nH]c34)nc(N3CCOCC3)n2)cc1 [Compound 1034, N,N-dimethyl-4-14-{[4-5-(morpholin-4-yl)-6-1-(2-21-oxo-2,3-dihydro-1H-1,3-benzodiazol-4-yl)-1,3,5-triazin-2-yl]oxy}benzamide] yielded an IC50 of over 5 µM.
For COC1CCN(C(=O)c2cccc(Nc3nc(-c4cccc5[nH]ncc45)nc(N4CCOCC4)n3)c2)CC1 [Compound 1140, (3-((4-(1H-indazol-4-yl)-6-morpholino-1,3,5-triazin-2-yl)amino)phenyl)(4-methoxypiperidin-1-yl)methanone], the IC50 was under 5 µM.
CN(C)C(=O)Nc1ccc(Oc2nc(-c3cccc4[nH]ncc34)nc(N3CCOCC3)n2)cc1 [Compound 1106, 1-(4-14-{[4-1-(1H-indazol-4-yl)-6-5-(morpholin-4-yl)-1,3,5-triazin-2-yl]oxy}phenyl)-3,3-dimethylurea] was tested, and the IC50 was under 5 µM.
In the case of CN(C)C(=O)c1ccc(Oc2nc(-c3cccc4[nH]ncc34)nc(N3CCOc4ccccc43)n2)cc1 [Compound 1043, 4-9-{[4-5-(3,4-dihydro-2H-1,4-benzoxazin-4-yl)-6-1-(1H-indazol-4-yl)-1,3,5-triazin-2-yl]oxy}-N,N-dimethylbenzamide], the IC50 is reported as over 5 µM.
CN(C)C(=O)CNc1nc(-c2ccc(N)cc2)nc(N2CCOCC2)n1 [Compound 1185, 2-((4-(4-aminophenyl)-6-morpholino-1,3,5-triazin-2-yl)amino)-N,N-dimethylacetamide] gave an IC50 of over 5 µM.
In the case of Oc1nc(-c2cccc3[nH]ncc23)nc(N2CCOCC2)n1 [Compound 1212, 4-1-(1H-indazol-4-yl)-6-5-(morpholin-4-yl)-1,3,5-triazin-2-ol], the IC50 is reported as under 5 µM.
Compound CS(=O)(=O)N1CCN(C(=O)CCNc2nc(-c3cccc4[nH]ncc34)nc(N3CCOCC3)n2)CC1 [Compound 1191, 3-((4-(1H-indazol-4-yl)-6-morpholino-1,3,5-triazin-2-yl)amino)-1-(4-(methylsulfonyl)piperazin-1-yl)propan-1-one] has an IC50 of under 5 µM.
For CN(C)C(=O)[C@@H]1CCC[C@@H](Oc2nc(-c3cccc4[nH]ncc34)nc(N3CCOCC3)n2)C1 [Compound 1133, (1R,3R)-3-14-{[4-1-(1H-indazol-4-yl)-6-5-(morpholin-4-yl)-1,3,5-triazin-2-yl]oxy}-N,N-dimethylcyclohexane-1-carboxamide], the IC50 was under 5 µM.
Cc1ccc(C(=O)N(C)C)cc1Nc1nc(-c2cccc3[nH]ncc23)nc(N2CCOCC2)n1 [Compound 1178, 3-((4-(1H-indazol-4-yl)-6-morpholino-1,3,5-triazin-2-yl)amino)-N,N,4-trimethylbenzamide] gave an IC50 of under 5 µM.
For CN(C)C(=O)N1CCCC(Oc2nc(-c3cccc4[nH]ncc34)nc(N3CCOCC3)n2)C1 (centres unmarked) [Compound 1091, 3-22-{[4-1-(1H-indazol-4-yl)-6-5-(morpholin-4-yl)-1,3,5-triazin-2-yl]oxy}-N,N-dimethylpiperidine-1-carboxamide], the IC50 was under 5 µM.
Work on CN(C)C(=O)[C@H]1CC[C@H](Nc2nc(-c3cccc4[nH]ncc34)nc(N3CCOCC3)n2)CC1 [Compound 1214, (1r,4r)-4-((4-(1H-indazol-4-yl)-6-morpholino-1,3,5-triazin-2-yl)amino)-N,N-dimethylcyclohexanecarboxamide] yielded an IC50 of under 5 µM.
With CN1CCN(c2nc(Oc3ccc(C(=O)N(C)C)cc3)nc(-c3cccc4[nH]ncc34)n2)CC1 [Compound 1061, 4-9-{[4-1-(1H-indazol-4-yl)-6-5-(4-30-methylpiperazin-1-yl)-1,3,5-triazin-2-yl]oxy}-N,N-dimethylbenzamide] the IC50 was over 5 µM.
Work on O=C(Nc1ccccn1)c1cccc(Nc2nc(-c3cccc4[nH]ncc34)nc(N3CCOCC3)n2)c1 [Compound 1129, 3-((4-(1H-indazol-4-yl)-6-morpholino-1,3,5-triazin-2-yl)amino)-N-(pyridin-2-yl)benzamide] yielded an IC50 of under 5 µM.
